Laboratory results from PubChem BioAssay (NCI).
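Compound exposure: 48 hours, 5 concentrations, 96-well plates. GI50: concentration for 50% inhibition of growth. TGI is the concentration that stops growth completely.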

Experiments:
Assay in all cases: growth of human tumour cells (NCI), 48 h
HOP-62 NSCLC = system: HOP-62 NSCLC
M14 melanoma = system: M14 melanoma
EKVX NSCLC = system: EKVX NSCLC
SN12C renal = system: SN12C renal
U251 CNS = system: U251 CNS
HCT-15 colon = system: HCT-15 colon
A549 NSCLC = system: A549 NSCLC
MOLT-4 leukemia = system: MOLT-4 leukemia
IGROV1 ovarian = system: IGROV1 ovarian
A498 renal = system: A498 renal

| SMILES | TGI (HOP-62 NSCLC) | TGI (M14 melanoma) | TGI (EKVX NSCLC) | TGI (SN12C renal) | TGI (U251 CNS) | TGI (HCT-15 colon) | TGI (A549 NSCLC) | TGI (MOLT-4 leukemia) | TGI (IGROV1 ovarian) | TGI (A498 renal) | GI50 (HOP-62 NSCLC) | GI50 (M14 melanoma) | GI50 (EKVX NSCLC) | GI50 (SN12C renal) | GI50 (U251 CNS) | GI50 (HCT-15 colon) | GI50 (A549 NSCLC) | GI50 (MOLT-4 leukemia) | GI50 (IGROV1 ovarian) | GI50 (A498 renal) |
| --- | --- | --- | --- | --- | --- | --- | --- | --- | --- | --- | --- | --- | --- | --- | --- | --- | --- | --- | --- | --- |
| Clc1ccc(-c2c(C3=NCCCN3)nnn2-c2ccccc2)cc1 | > 100 µM | > 100 µM | > 100 µM | > 100 µM | > 100 µM | > 100 µM | > 100 µM | > 100 µM | > 100 µM | > 100 µM | – | – | – | – | – | – | – | – | – | – |
| NC(N)=N/N=C/c1ccc(-c2ccc(-c3cc(Cl)cc(Cl)c3)s2)cc1 | 4.05 µM | 3.53 µM | 4.03 µM | 3.48 µM | 4.04 µM | 2.76 µM | 4.99 µM | 4.3 µM | 3.36 µM | 2.55 µM | 1.79 µM | 1.75 µM | 1.84 µM | 1.76 µM | 1.89 µM | 1.25 µM | 2.15 µM | 1.72 µM | 1.68 µM | 1.25 µM |
| O=C1OCC2=C1C(c1ccc(Cl)c(Cl)c1)c1cc3c(cc1N2CCO)CCC3 (configuration not stated) | 9.26 µM | 6.53 µM | 15.6 µM | 8.91 µM | 6.29 µM | 20.3 µM | 8.04 µM | 27.8 µM | 17.8 µM | 1.37 µM | 0.229 µM | 0.2 µM | 0.435 µM | 0.398 µM | 0.181 µM | 0.215 µM | 0.195 µM | 0.628 µM | 0.555 µM | 0.0919 µM |
| CC(=O)NC1C(OCc2ccccc2)OC(COC(=O)CCCCCCCCCCNc2ccc([N+](=O)[O-])c3[nH]c4ccccc4c(=O)c23)C(O)C1OC(C)C(=O)NC(C)C(=O)NC(CCC(N)=O)C(=O)OCc1ccccc1 (configuration not stated) | > 100 µM | > 100 µM | > 100 µM | > 100 µM | > 100 µM | > 100 µM | > 100 µM | > 100 µM | > 100 µM | > 100 µM | – | – | – | – | – | – | – | – | – | – |
| O=C1c2cc([N+](=O)[O-])ccc2-c2ccc3c4ccc5c6c(ccc(c7ccc1c2c73)c64)C(=O)c1cc([N+](=O)[O-])ccc1-5 | > 100 µM | > 100 µM | > 100 µM | > 100 µM | > 100 µM | > 100 µM | > 100 µM | > 100 µM | > 100 µM | > 100 µM | – | – | – | – | – | – | – | – | – | – |
| COc1cc(C(=O)Nc2cc(OC)c3ccn(C)c3c2)cc2c1C[C@]1(C)CC[C@@H](O)C(C)(C)[C@H]1O2 | 13.1 µM | 2.9 µM | > 100 µM | > 100 µM | 15.3 µM | > 100 µM | 33.7 µM | 1.45 µM | > 100 µM | 1.89 µM | 0.77 µM | 0.454 µM | 1.87 µM | 3.93 µM | 0.0978 µM | 1.05 µM | – | 0.21 µM | 1.7 µM | 0.149 µM |
| NCC1OC(OC2C(CO)OC(OC3C(O)C(N)CC(N)C3OC3OC(CO)C(O)CC3N)C2O)C(N)C(O)C1OC1OC(CO)C(O)C(O)C1O (configuration not stated) | > 50 µg/mL | > 50 µg/mL | > 50 µg/mL | > 50 µg/mL | > 50 µg/mL | > 50 µg/mL | > 50 µg/mL | > 50 µg/mL | > 50 µg/mL | > 50 µg/mL | > 50 µg/mL | > 50 µg/mL | > 50 µg/mL | > 50 µg/mL | > 50 µg/mL | > 50 µg/mL | > 50 µg/mL | > 50 µg/mL | > 50 µg/mL | > 50 µg/mL |
| O=C(c1ccco1)c1c(C(F)(F)F)n([O-])c2ccc(Cl)cc2[n+]1=O | 0.617 µM | 1.67 µM | 2.12 µM | 3.13 µM | 1.66 µM | 1.72 µM | 2.44 µM | 0.539 µM | – | 2.99 µM | 0.194 µM | 0.374 µM | 0.561 µM | 1.35 µM | 0.487 µM | 0.372 µM | 0.615 µM | 0.0335 µM | 0.404 µM | 1.46 µM |
| O=C(Nc1ccc(/C=C/c2ccc(NC(=O)c3cc(S(=O)(=O)O)c4cccnc4c3O)cc2S(=O)(=O)O)c(S(=O)(=O)O)c1)c1cc(S(=O)(=O)O)c2cccnc2c1O | > 66.1 µM | > 49 µM | > 80.5 µM | > 59.2 µM | > 22.4 µM | > 71.5 µM | > 56 µM | > 28.7 µM | > 60.2 µM | > 64.4 µM | 10.9 µM | 7.18 µM | > 50.9 µM | 4.36 µM | 3.32 µM | > 41.6 µM | 9.49 µM | 1.69 µM | 18.5 µM | 46.6 µM |
| CN1CCN(C)C12C=CC=CC21CC1 | > 100 µM | > 100 µM | > 100 µM | > 100 µM | > 100 µM | > 100 µM | > 100 µM | > 100 µM | > 100 µM | > 100 µM | – | – | – | – | – | – | – | – | – | – |
| COc1cc2c(cc1Nc1nc(Nc3cccc(F)c3C(N)=O)c3cc[nH]c3n1)N(C(=O)CN1CCN(C(C)C)CC1)CC2 | 5.92 µM | 7.54 µM | 7.13 µM | 10.5 µM | 7.09 µM | 9.33 µM | 7.19 µM | 10.7 µM | 10.2 µM | 3.68 µM | 2.88 µM | 3.99 µM | 3.08 µM | 4.66 µM | 3.68 µM | 4.36 µM | 3.48 µM | 4.74 µM | 4.5 µM | 2.43 µM |
| COc1ccc(C2=NN(C(=O)c3cc(OC)c(OC)c(OC)c3)C(c3ccc(N(C)C)cc3)C2)cc1 (configuration not stated) | – | > 21 µM | > 100 µM | > 100 µM | > 100 µM | > 100 µM | > 100 µM | > 100 µM | > 100 µM | 9.23 µM | 0.57 µM | 0.496 µM | 1.43 µM | 2.6 µM | 0.473 µM | 0.426 µM | 1.12 µM | 3.87 µM | 0.739 µM | 0.337 µM |
| O=c1oc2ccc(Br)cc2c(=O)n1-c1ccc(I)cc1F | 7.76 µM | 4.39 µM | 5.73 µM | 2.79 µM | 19.3 µM | 5.96 µM | 22.9 µM | 3.22 µM | 18.9 µM | 0.377 µM | 0.774 µM | 0.416 µM | 0.594 µM | 0.33 µM | 0.375 µM | 0.4 µM | 0.717 µM | 0.579 µM | 0.378 µM | 0.15 µM |
| O=C(Nc1n[nH]c2nnc(-c3cccnc3)cc12)C1CC1 | > 25 µM | > 25 µM | > 25 µM | > 25 µM | > 25 µM | > 25 µM | > 25 µM | > 25 µM | > 25 µM | 0.17 µM | 10.1 µM | > 16.1 µM | > 20.9 µM | > 11.7 µM | 1.06 µM | > 20.3 µM | > 20.7 µM | 4.88 µM | > 11.7 µM | 0.051 µM |
| CCCCCCCCCCCCOC1C(CNC(=O)C2OC3OC(C)(C)OC3C2NC(=O)Nc2ccc(CC(=O)NC(Cc3ccccc3)C(=O)O)cc2)OC2OC(C)(C)OC21 (configuration not stated) | > 25 µM | > 25 µM | > 25 µM | > 25 µM | > 25 µM | > 25 µM | > 25 µM | > 25 µM | > 25 µM | > 25 µM | > 25 µM | > 25 µM | > 25 µM | > 25 µM | > 25 µM | > 25 µM | > 25 µM | > 25 µM | 22.5 µM | > 25 µM |
| Cn1c(/C=C/[N+](=O)[O-])cc2ccccc21 | 27.6 µM | 3.56 µM | > 100 µM | > 100 µM | 3.75 µM | 11.2 µM | 7.83 µM | 58 µM | 5.44 µM | 9.27 µM | 8.39 µM | 1.77 µM | 15.3 µM | 13.1 µM | 1.73 µM | 3.24 µM | 2.68 µM | 5.36 µM | 2.05 µM | 2.19 µM |
| COc1cc(C(=O)N/N=C/c2ccc(N(C)C)cc2)cc(OC)c1OC | > 100 µM | > 100 µM | > 100 µM | > 100 µM | > 100 µM | > 100 µM | > 100 µM | 19.4 µM | > 100 µM | 0.799 µM | 0.598 µM | 0.335 µM | > 100 µM | 1.1 µM | 0.436 µM | 0.447 µM | 0.502 µM | 0.729 µM | 1.15 µM | 0.172 µM |
| CC(=O)OC1CC2C3CCC4C[C@@H](NC(=O)C=C(C)C)CC[C@]4(C)C3CC[C@]2(C)[C@H]1C(C)N(C)C (some centres not stated) | 3.64 µM | 3.39 µM | 11.3 µM | 8 µM | 5.79 µM | 2.75 µM | 6.99 µM | 4.18 µM | 6.5 µM | 4.51 µM | 1.8 µM | 1.6 µM | 2.25 µM | 2.4 µM | 1.75 µM | 0.721 µM | 2.39 µM | 1.32 µM | 1.28 µM | 1.71 µM |
